From ChEMBL document CHEMBL1145390, “Synthesis and preliminary biological characterization of new semisynthetic derivatives of ramoplanin” (J Med Chem, 2007)
≈ marks a conversion by molar mass, not a printed value.

Assays:
[1] = test system: Candida albicans; test: Antifungal activity against Candida albicans SKF-2270 after 24 hrs by broth microdilution method; type: functional; settings: read-out: MIC
[2] = test system: Staphylococcus aureus; test: Antibacterial activity against Staphylococcus aureus Smith after 24 hrs by broth microdilution method; type: functional; settings: read-out: MIC
[3] = test system: Enterococcus faecium; test: Antibacterial activity against Enterococcus faecium after 24 hrs by broth microdilution method; type: functional; settings: read-out: MIC
[4] = test system: Streptococcus pyogenes; test: Antibacterial activity against Streptococcus pyogenes C203 after 24 hrs by broth microdilution method; type: functional; settings: C203, 24 h, read-out: MIC
[5] = test system: Enterococcus faecium; test: Antibacterial activity against vancomycin A-resistant Enterococcus faecium clinical isolate in presence of 30% bovine serum after 24 hrs by broth microdilution method; type: functional
[6] = test system: Enterococcus faecium; test: Antibacterial activity against vancomycin A-resistant Enterococcus faecium clinical isolate after 24 hrs by broth microdilution method; type: functional; settings: read-out: MIC
[7] = test system: Staphylococcus aureus; test: Antibacterial activity against vancomycin-intermediate resistant Staphylococcus aureus clinical isolate in presence of 30% bovine serum after 24 hrs by broth microdilution method; type: functional
[8] = test system: Enterococcus faecalis; test: Antibacterial activity against Enterococcus faecalis after 24 hrs by broth microdilution method; type: functional; settings: read-out: MIC
[9] = test system: Escherichia coli; test: Antibacterial activity against Escherichia coli SKF-12140 after 24 hrs by broth microdilution method; type: functional; settings: read-out: MIC
[10] = test system: Enterococcus faecalis; test: Antibacterial activity against vancomycin-resistant Enterococcus faecalis in presence of 30% bovine serum after 24 hrs by broth microdilution method; type: functional
[11] = test system: Staphylococcus aureus; test: Antibacterial activity against vancomycin-intermediate resistant Staphylococcus aureus clinical isolate after 24 hrs by broth microdilution method; type: functional
[12] = test system: Staphylococcus aureus; test: Antibacterial activity against methicillin-resistant Staphylococcus aureus clinical isolate after 24 hrs by broth microdilution method; type: functional; settings: read-out: MIC
[13] = test system: Enterococcus faecalis; test: Antibacterial activity against vancomycin A-resistant Enterococcus faecalis after 24 hrs by broth microdilution method; type: functional; settings: read-out: MIC
[14] = test system: Staphylococcus aureus; test: Antibacterial activity against methicillin-resistant and vancomycin-intermediate resistant Staphylococcus aureus clinical isolate after 24 hrs by broth microdilution method; type: functional; settings: read-out: MIC
[15] = test system: Staphylococcus aureus; test: Antibacterial activity against Staphylococcus aureus Smith in presence of 30% bovine serum after 24 hrs by broth microdilution method; type: functional
[16] = Toxicity assessed as hemolysis in erythrocytes at 180 mg/L; type: cell-based, Erythrocyte; settings: human, erythrocytes; read-out: Activity
[17] = Toxicity assessed as hemolysis in erythrocytes at 90 mg/L; type: cell-based, Erythrocyte; settings: human, erythrocytes; read-out: Activity

CCc1ccccc1CC(=O)N[C@@H](CC(N)=O)C(=O)N[C@@H]1C(=O)N[C@H](c2ccc(O)cc2)C(=O)N[C@H](CCCN)C(=O)N[C@H]([C@@H](C)O)C(=O)N[C@@H](c2ccc(O)cc2)C(=O)N[C@H](c2ccc(O)cc2)C(=O)N[C@@H]([C@H](C)O)C(=O)N[C@@H](Cc2ccccc2)C(=O)N[C@H](CCCN)C(=O)N[C@@H](c2ccc(O[C@H]3O[C@H](CO)[C@@H](O)[C@H](O)[C@@H]3O[C@H]3O[C@H](CO)[C@@H](O)[C@H](O)[C@@H]3O)cc2)C(=O)N[C@H]([C@@H](C)O)C(=O)N[C@@H](c2ccc(O)cc2)C(=O)NCC(=O)N[C@@H](CC(C)C)C(=O)N[C@H](C)C(=O)N[C@@H](c2ccc(O)c(Cl)c2)C(=O)O[C@@H]1C(N)=O
MIC [1]: > 128 µg/mL
MIC [2]: 0.125 µg/mL (≈ 0.0488 µM)
MIC [3]: ≤ 0.06 µg/mL
MIC [4]: ≤ 0.125 µg/mL
MIC [5]: 4 µg/mL
MIC [6]: 0.5 µg/mL (≈ 0.195 µM)
MIC [7]: 4 µg/mL
MIC [8]: 0.5 µg/mL (≈ 0.195 µM)
MIC [9]: > 128 µg/mL
MIC [10]: 2 µg/mL
MIC [11]: 1 µg/mL (≈ 0.39 µM)
MIC [12]: 0.5 µg/mL (≈ 0.195 µM)
MIC [13]: 0.5 µg/mL (≈ 0.195 µM)
MIC [14]: 2 µg/mL (≈ 0.78 µM)
MIC [15]: 1 µg/mL

CCCCOc1ccc(C(=O)N[C@@H](CC(N)=O)C(=O)NC[C@@H]2C(=O)N[C@H](c3ccc(O)cc3)C(=O)N[C@H](CCCN)C(=O)N[C@H](C(C)C)C(=O)N[C@@H](c3ccc(O)cc3)C(=O)N[C@H](c3ccc(O)cc3)C(=O)N[C@@H]([C@@H](C)O)C(=O)N[C@@H](Cc3ccccc3)C(=O)N[C@H](CCCN)C(=O)N[C@@H](c3ccc(O[C@H]4O[C@H](CO)[C@@H](O)[C@H](O)[C@@H]4O[C@H]4O[C@H](CO)[C@@H](O)[C@H](O)[C@@H]4O)cc3)C(=O)N[C@H]([C@@H](C)O)C(=O)N[C@@H](c3ccc(O)cc3)C(=O)NCC(=O)N[C@@H](CC(C)C)C(=O)N[C@H](C)C(=O)N[C@@H](c3ccc(O)c(Cl)c3)C(=O)O[C@@H]2C(N)=O)cc1
MIC [1]: > 32 µg/mL
MIC [2]: 0.25 µg/mL (≈ 0.0959 µM)
MIC [3]: 0.25 µg/mL (≈ 0.0959 µM)
MIC [4]: 0.125 µg/mL (≈ 0.048 µM)
MIC [6]: 0.25 µg/mL (≈ 0.0959 µM)
hemolysis at 180 mg/L [16]: 5%
MIC [8]: 0.25 µg/mL (≈ 0.0959 µM)
MIC [9]: > 32 µg/mL
MIC [11]: 4 µg/mL (≈ 1.53 µM)
hemolysis at 90 mg/L [17]: 0%
MIC [12]: 0.5 µg/mL (≈ 0.192 µM)
MIC [13]: 0.25 µg/mL (≈ 0.0959 µM)
MIC [14]: 4 µg/mL (≈ 1.53 µM)

CCOc1ccc(C(=O)N[C@@H](CC(N)=O)C(=O)NC[C@@H]2C(=O)N[C@H](c3ccc(O)cc3)C(=O)N[C@H](CCCN)C(=O)N[C@H](C(C)C)C(=O)N[C@@H](c3ccc(O)cc3)C(=O)N[C@H](c3ccc(O)cc3)C(=O)N[C@@H]([C@@H](C)O)C(=O)N[C@@H](Cc3ccccc3)C(=O)N[C@H](CCCN)C(=O)N[C@@H](c3ccc(O[C@H]4O[C@H](CO)[C@@H](O)[C@H](O)[C@@H]4O[C@H]4O[C@H](CO)[C@@H](O)[C@H](O)[C@@H]4O)cc3)C(=O)N[C@H]([C@@H](C)O)C(=O)N[C@@H](c3ccc(O)cc3)C(=O)NCC(=O)N[C@@H](CC(C)C)C(=O)N[C@H](C)C(=O)N[C@@H](c3ccc(O)c(Cl)c3)C(=O)O[C@@H]2C(N)=O)cc1
MIC [1]: > 32 µg/mL
MIC [2]: 1 µg/mL (≈ 0.388 µM)
MIC [3]: 2 µg/mL (≈ 0.776 µM)
MIC [4]: < 0.03 µg/mL
MIC [6]: 2 µg/mL (≈ 0.776 µM)
hemolysis at 180 mg/L [16]: 1%
MIC [8]: 2 µg/mL (≈ 0.776 µM)
MIC [9]: > 32 µg/mL
MIC [11]: 8 µg/mL (≈ 3.1 µM)
hemolysis at 90 mg/L [17]: 1%
MIC [12]: 2 µg/mL (≈ 0.776 µM)
MIC [13]: 2 µg/mL (≈ 0.776 µM)
MIC [14]: 32 µg/mL (≈ 12.4 µM)

CCCCCCCCc1ccc(C(=O)N[C@@H](CC(N)=O)C(=O)NC[C@@H]2C(=O)N[C@H](c3ccc(O)cc3)C(=O)N[C@H](CCCN)C(=O)N[C@H](C(C)C)C(=O)N[C@@H](c3ccc(O)cc3)C(=O)N[C@H](c3ccc(O)cc3)C(=O)N[C@@H]([C@@H](C)O)C(=O)N[C@@H](Cc3ccccc3)C(=O)N[C@H](CCCN)C(=O)N[C@@H](c3ccc(O[C@H]4O[C@H](CO)[C@@H](O)[C@H](O)[C@@H]4O[C@H]4O[C@H](CO)[C@@H](O)[C@H](O)[C@@H]4O)cc3)C(=O)N[C@H]([C@@H](C)O)C(=O)N[C@@H](c3ccc(O)cc3)C(=O)NCC(=O)N[C@@H](CC(C)C)C(=O)N[C@H](C)C(=O)N[C@@H](c3ccc(O)c(Cl)c3)C(=O)O[C@@H]2C(N)=O)cc1
MIC [1]: > 32 µg/mL
MIC [2]: 8 µg/mL (≈ 3.02 µM)
MIC [3]: 4 µg/mL (≈ 1.51 µM)
MIC [4]: 2 µg/mL (≈ 0.756 µM)
MIC [6]: 4 µg/mL (≈ 1.51 µM)
hemolysis at 180 mg/L [16]: 72%
MIC [8]: 4 µg/mL (≈ 1.51 µM)
MIC [9]: > 32 µg/mL
MIC [11]: 16 µg/mL (≈ 6.05 µM)
hemolysis at 90 mg/L [17]: 95%
MIC [12]: 8 µg/mL (≈ 3.02 µM)
MIC [13]: 4 µg/mL (≈ 1.51 µM)
MIC [14]: 16 µg/mL (≈ 6.05 µM)

CCc1ccc(C(=O)N[C@@H](CC(N)=O)C(=O)NC[C@@H]2C(=O)N[C@H](c3ccc(O)cc3)C(=O)N[C@H](CCCN)C(=O)N[C@H](C(C)C)C(=O)N[C@@H](c3ccc(O)cc3)C(=O)N[C@H](c3ccc(O)cc3)C(=O)N[C@@H]([C@@H](C)O)C(=O)N[C@@H](Cc3ccccc3)C(=O)N[C@H](CCCN)C(=O)N[C@@H](c3ccc(O[C@H]4O[C@H](CO)[C@@H](O)[C@H](O)[C@@H]4O[C@H]4O[C@H](CO)[C@@H](O)[C@H](O)[C@@H]4O)cc3)C(=O)N[C@H]([C@@H](C)O)C(=O)N[C@@H](c3ccc(O)cc3)C(=O)NCC(=O)N[C@@H](CC(C)C)C(=O)N[C@H](C)C(=O)N[C@@H](c3ccc(O)c(Cl)c3)C(=O)O[C@@H]2C(N)=O)cc1
MIC [1]: > 32 µg/mL
MIC [2]: 0.5 µg/mL (≈ 0.195 µM)
MIC [3]: 1 µg/mL (≈ 0.39 µM)
MIC [4]: < 0.03 µg/mL
MIC [6]: 1 µg/mL (≈ 0.39 µM)
hemolysis at 180 mg/L [16]: 62%
MIC [8]: 1 µg/mL (≈ 0.39 µM)
MIC [9]: > 32 µg/mL
MIC [11]: > 32 µg/mL
hemolysis at 90 mg/L [17]: 36%
MIC [12]: 1 µg/mL (≈ 0.39 µM)
MIC [13]: 1 µg/mL (≈ 0.39 µM)
MIC [14]: 4 µg/mL (≈ 1.56 µM)

Cc1ccc(C(=O)N[C@@H](CC(N)=O)C(=O)NC[C@@H]2C(=O)N[C@H](c3ccc(O)cc3)C(=O)N[C@H](CCCN)C(=O)N[C@H](C(C)C)C(=O)N[C@@H](c3ccc(O)cc3)C(=O)N[C@H](c3ccc(O)cc3)C(=O)N[C@@H]([C@@H](C)O)C(=O)N[C@@H](Cc3ccccc3)C(=O)N[C@H](CCCN)C(=O)N[C@@H](c3ccc(O[C@H]4O[C@H](CO)[C@@H](O)[C@H](O)[C@@H]4O[C@H]4O[C@H](CO)[C@@H](O)[C@H](O)[C@@H]4O)cc3)C(=O)N[C@H]([C@@H](C)O)C(=O)N[C@@H](c3ccc(O)cc3)C(=O)NCC(=O)N[C@@H](CC(C)C)C(=O)N[C@H](C)C(=O)N[C@@H](c3ccc(O)c(Cl)c3)C(=O)O[C@@H]2C(N)=O)cc1
MIC [1]: > 32 µg/mL
MIC [2]: 4 µg/mL (≈ 1.57 µM)
MIC [3]: 4 µg/mL (≈ 1.57 µM)
MIC [4]: < 0.03 µg/mL
MIC [6]: 2 µg/mL (≈ 0.785 µM)
hemolysis at 180 mg/L [16]: 3%
MIC [8]: 2 µg/mL (≈ 0.785 µM)
MIC [9]: > 32 µg/mL
MIC [11]: 8 µg/mL (≈ 3.14 µM)
hemolysis at 90 mg/L [17]: 5%
MIC [12]: 4 µg/mL (≈ 1.57 µM)
MIC [13]: 2 µg/mL (≈ 0.785 µM)
MIC [14]: 4 µg/mL (≈ 1.57 µM)

CCCCC(=O)N[C@@H](CC(N)=O)C(=O)NC[C@@H]1C(=O)N[C@H](c2ccc(O)cc2)C(=O)N[C@H](CCCN)C(=O)N[C@H](C(C)C)C(=O)N[C@@H](c2ccc(O)cc2)C(=O)N[C@H](c2ccc(O)cc2)C(=O)N[C@@H]([C@@H](C)O)C(=O)N[C@@H](Cc2ccccc2)C(=O)N[C@H](CCCN)C(=O)N[C@@H](c2ccc(O[C@H]3O[C@H](CO)[C@@H](O)[C@H](O)[C@@H]3O[C@H]3O[C@H](CO)[C@@H](O)[C@H](O)[C@@H]3O)cc2)C(=O)N[C@H]([C@@H](C)O)C(=O)N[C@@H](c2ccc(O)cc2)C(=O)NCC(=O)N[C@@H](CC(C)C)C(=O)N[C@H](C)C(=O)N[C@@H](c2ccc(O)c(Cl)c2)C(=O)O[C@@H]1C(N)=O
MIC [1]: > 32 µg/mL
MIC [2]: 8 µg/mL (≈ 3.18 µM)
MIC [3]: 8 µg/mL (≈ 3.18 µM)
MIC [4]: 0.125 µg/mL (≈ 0.0497 µM)
MIC [6]: 8 µg/mL (≈ 3.18 µM)
hemolysis at 180 mg/L [16]: 0%
MIC [8]: 8 µg/mL (≈ 3.18 µM)
MIC [9]: > 32 µg/mL
MIC [11]: 32 µg/mL (≈ 12.7 µM)
hemolysis at 90 mg/L [17]: 0%
MIC [12]: 8 µg/mL (≈ 3.18 µM)
MIC [13]: 8 µg/mL (≈ 3.18 µM)
MIC [14]: > 32 µg/mL
